Measured values: article PMC12730265, “Combinatorial Antimicrobial Effects of Imidazolium-Based Ionic Liquids and Antifungals on Model Fungal Organisms” (Biomolecules, 2025)

Key:
S. cerevisiae = experiment: Kirby–Bauer disk diffusion assay on IL-containing YPD plates; assay type: cell-based; settings: for Zone of inhibition (ZOI) diameter: 100 = no growth on plate
Protocol: Assessment of fungal growth on YPD plates with AFs + ILs served as an indicator for the combined efficacy of treatment of ILs and AFs. YPD agar plates were made with addition of increasing concentrations of [HMIM]Cl at 0, 2.5, 6.25, and 25 mM or [OMIM]Cl at 0, 0.25, 0.625, and 2.5 mM. Plates solidified and dried on bench for 24 h before use. IN total, 400 μL of S. cerevisiae or C. albicans liquid culture at mid-log phase OD600 0.5 was spread using sterile glass beads to achieve even distribution. Following addition of culture, the plates were allowed to dry for 30 min before the addition of antifungal disks. Antifungal-infused disks were prepared using the stock solutions of solubilized antibiotics; 15 μL of each of the 4 azole antifungals at stock concentrations was pipetted onto a sterile 6 mm cellulose disk (BD). […] After plate drying was complete, sterile forceps were used to transfer the disks to the media, and the plate was grown upright in an incubator overnight at 30 °C. The following day, photographs were taken of the plates to visualize the zone of inhibition (ZOI) created by the combined treatment. Adobe Illustrator 2023 CC was used to perform digital measurements of ZOI diameters.
To assess the potential for combinatorial effects of ILs and AFs in yeast, Kirby–Bauer disk diffusion assays were performed for C. albicans and S. cerevisiae for [HMIM]Cl and [OMIM]Cl with all four AFs. […] The addition of 6 mm cellulose disks infused with equal volumes of solubilized AFs to the plates occurred after plating of C. albicans or S. cerevisiae, allowing for growth for 48 h at 23 °C, at which point the plates were evaluated for the establishment of zones of inhibition (ZOI). Digital pictures were acquired of all plates, and measurements of ZOI diameter were performed digitally as described in the Methods. […] With progressively increasing amounts of both [HMIM]Cl and [OMIM]Cl, ZOIs increased for all Afs, including Fluconazole and Itraconazole, which appear to be ineffective without IL in the Kirby–Bauer disk assay. Experiments were performed in triplicate and ZOIs were measured for all plates.
Similar experiments testing the combinatorial effects of [HMIM]Cl or [OMIM]Cl were performed on S. cerevisiae using Kirby–Bauer disk assays and quantified for changes in ZOI (Appendix Figure A1). ZOI measurements (mm) from both C. albicans and S. cerevisiae were compiled, and the averages are shown numerically as well as with shading and plotted in Figure 3. […] Finally, at intermediate concentrations of both [HMIM]Cl and [OMIM]Cl, a combinatorial effect of IL + AF was evident for all four AFs in S. cerevisiae, similar to observations in C. albicans.

C. albicans = experiment: Checkerboard assay IL + Clotrimazole, growth on YPD plate post-treatment (fungicidal); assay type: cell-based; settings: for average growth, visually scored (2 full, 1 interrupted, 0 no growth): [HMIM]Cl 0 mM
Protocol: C. albicans was grown overnight in YPD liquid media at 30 °C, at which point it was diluted into 10 mL of YPD media at 0.1 OD600 and was grown to mid-log phase 0.5 OD600 and subsequently diluted to 5 × 10^3 CFU/mL cells in YPD of which 180 μL of culture was distributed into a 96-well round-bottom culture dish. To this dish, 20 μL of IL, AF, or IL + AF was added to each well at concentrations indicated in each experiment. These culture plates were grown in an incubator shaker for 48 h at 30 °C, at which point the cultures were mixed by pipetting and then spotted onto YPD solid plates and allowed to grow for an additional 48 h. After 48 h, plates were visually scored for no growth (0), 50% growth (1), or 100% growth relative to PBS control (2). Experiments were performed in triplicate, and scores were averaged per well.
In order to evaluate if the same combinatorial effect was present in liquid culture and furthermore to identify the specific concentrations at which a combined effect may be present, checkerboard assays were performed. […] These assays were completed in triplicate for both [HMIM]Cl and [OMIM]Cl with the addition of Clotrimazole on C. albicans. In this assay, both IL and AF were loaded into a 96-well plate YPD liquid culture plate in double serial dilutions with decreasing IL from top to bottom and decreasing AF from left to right. Each well represents a different final concentration of both drugs in combination. Growth of the target microorganism was measured as growth in liquid media by OD600 nm, representing fungistatic interactions and [2] growth on a YPD plate post-treatment as fungicidal (Figure 4).
Checkerboard assays were performed in 96-well plates with Clotrimazole + [HMIM]Cl or [OMIM]Cl on C. albicans. These culture plates were grown in an incubator shaker for 48 h at 23 °C, and thereafter C. albicans was mixed by pipetting and then spotted onto YPD solid plates and allowed to grow for an additional 48 h. After 48 h, plates were visually scored for no growth (0), 50% growth (1), or 100% growth relative to PBS control (2). Experiments were performed in triplicate, and scores were averaged per well. […] We measured this by calculating the fractional inhibitory concentration (FIC) score ((MIC50 IL + AF)/(MIC50 AF)) + ((MIC50 IL + AF)/(MIC50 IL)). In this well-established measure of combined interactions, a score < 0.5 indicated synergistic interaction, 0.5–4 potential combinatorial interaction or no effect, and >4 antagonistic interaction.

[1] = in combination with Clotrimazole 4 mg/L

SMILES: Clc1ccccc1C(c1ccccc1)(c1ccccc1)n1ccnc1 [Clotrimazole]
- Zone of inhibition (ZOI) diameter (S. cerevisiae; [HMIM]Cl 0 mM in plate): 21.67 mm
- Zone of inhibition (ZOI) diameter (S. cerevisiae; [HMIM]Cl 2.5 mM in plate): 26.67 mm
- Zone of inhibition (ZOI) diameter (S. cerevisiae; [HMIM]Cl 6.25 mM in plate): 50.33 mm
- Zone of inhibition (ZOI) diameter (S. cerevisiae; [HMIM]Cl 25 mM in plate): 100 mm
- Zone of inhibition (ZOI) diameter (S. cerevisiae; [OMIM]Cl 0 M in plate): 21.67 mm
- Zone of inhibition (ZOI) diameter (S. cerevisiae; [OMIM]Cl 0.25 mM in plate): 30 mm
- Zone of inhibition (ZOI) diameter (S. cerevisiae; [OMIM]Cl 0.625 mM in plate): 47.33 mm
- Zone of inhibition (ZOI) diameter (S. cerevisiae; [OMIM]Cl 2.5 mM in plate): 100 mm
- average growth, visually scored (2 full, 1 interrupted, 0 no growth) (C. albicans; Clotrimazole 0.1 mg/L): 2
- average growth, visually scored (2 full, 1 interrupted, 0 no growth) (C. albicans; Clotrimazole 0.25 mg/L): 2
- average growth, visually scored (2 full, 1 interrupted, 0 no growth) (C. albicans; Clotrimazole 0.5 mg/L): 2
- average growth, visually scored (2 full, 1 interrupted, 0 no growth) (C. albicans; Clotrimazole 1 mg/L): 2
- average growth, visually scored (2 full, 1 interrupted, 0 no growth) (C. albicans; Clotrimazole 2 mg/L): 1.67
- average growth, visually scored (2 full, 1 interrupted, 0 no growth) (C. albicans; Clotrimazole 4 mg/L): 1.33
- average growth, visually scored (2 full, 1 interrupted, 0 no growth) (C. albicans; Clotrimazole 8 mg/L): 1
- average growth, visually scored (2 full, 1 interrupted, 0 no growth) (C. albicans; Clotrimazole 15 mg/L): 1
- average growth, visually scored (2 full, 1 interrupted, 0 no growth) (C. albicans; Clotrimazole 31 mg/L): 1
- average growth, visually scored (2 full, 1 interrupted, 0 no growth) (C. albicans; Clotrimazole 62 mg/L): 0.67
- average growth, visually scored (2 full, 1 interrupted, 0 no growth) (C. albicans; Clotrimazole 125 mg/L): 0.67
- average growth, visually scored (2 full, 1 interrupted, 0 no growth) (C. albicans; Clotrimazole 250 mg/L): 0.33
- Clotrimazole concentration at 50% growth (C. albicans; with 0.39 mM [OMIM]Cl): 4 mg/L
- Clotrimazole concentration at 50% growth (C. albicans; with 1.562 mM [HMIM]Cl): 4 mg/L

SMILES: CCCCCCn1cc[n+](C)c1.[Cl-] [[HMIM]Cl, 1-hexyl-3-methylimidazolium chloride]
- growth of S. cerevisiae on IL plate (S. cerevisiae; plates with 25 mM [HMIM]Cl): complete inability to grow
- IL concentration at 50% growth (MIC50 used for FIC) (C. albicans; IL alone, fungicidal checkerboard): 6250 µM
- antifungal effect of IL without Clotrimazole (C. albicans; [HMIM]Cl 12.5 mM): not completely fungicidal
- IL concentration at 50% growth (MIC50 used for FIC) (C. albicans; [1]): 1562 µM

SMILES: CCCCCCCCn1cc[n+](C)c1.[Cl-] [[OMIM]Cl, 1-octyl-3-methylimidazolium chloride]
- growth of S. cerevisiae on IL plate (S. cerevisiae; plates with 2.5 mM [OMIM]Cl): complete inability to grow
- antifungal effect of IL without Clotrimazole (C. albicans; [OMIM]Cl 6.25 mM): not completely fungicidal
- IL concentration at 50% growth (MIC50 used for FIC) (C. albicans; [1]): 390 µM
